In PubChem BioAssay (NCI):
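These data come from cells grown in 96-well plates and exposed to compound for 48 hours at five concentrations. TGI marks complete inhibition of growth.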

Legend:
Experiment in all cases: growth of human tumour cells (NCI), 48 h
NCI-H226 lung = tested on: NCI-H226 lung
NCI-H460 lung = tested on: NCI-H460 lung
A549 NSCLC = tested on: A549 NSCLC
SR leukemia = tested on: SR leukemia
U251 CNS = tested on: U251 CNS
OVCAR-8 ovarian = tested on: OVCAR-8 ovarian
OVCAR-5 ovarian = tested on: OVCAR-5 ovarian
HCC-2998 colon = tested on: HCC-2998 colon
786-0 renal = tested on: 786-0 renal
SF-539 CNS = tested on: SF-539 CNS
SNB-19 CNS = tested on: SNB-19 CNS
LOX IMVI melanoma = tested on: LOX IMVI melanoma
SK-OV-3 ovarian = tested on: SK-OV-3 ovarian
MDA-N = tested on: MDA-N
NCI-H23 lung = tested on: NCI-H23 lung
UO-31 renal = tested on: UO-31 renal
MALME-3M melanoma = tested on: MALME-3M melanoma
HOP-92 NSCLC = tested on: HOP-92 NSCLC
T-47D breast = tested on: T-47D breast
EKVX NSCLC = tested on: EKVX NSCLC
HL-60(TB) leukemia = tested on: HL-60(TB) leukemia
SF-268 CNS = tested on: SF-268 CNS
UACC-62 melanoma = tested on: UACC-62 melanoma
IGROV1 ovarian = tested on: IGROV1 ovarian
RXF 393 renal = tested on: RXF 393 renal
HS 578T breast = tested on: HS 578T breast
MOLT-4 leukemia = tested on: MOLT-4 leukemia
CAKI-1 renal = tested on: CAKI-1 renal
RPMI-8226 leukemia = tested on: RPMI-8226 leukemia
M14 melanoma = tested on: M14 melanoma
ACHN renal = tested on: ACHN renal
SF-295 CNS = tested on: SF-295 CNS
HOP-62 NSCLC = tested on: HOP-62 NSCLC
MCF7 breast = tested on: MCF7 breast
SK-MEL-2 melanoma = tested on: SK-MEL-2 melanoma
NCI-H522 lung = tested on: NCI-H522 lung
CCRF-CEM leukemia = tested on: CCRF-CEM leukemia
DU-145 prostate = tested on: DU-145 prostate
SN12C renal = tested on: SN12C renal
MDA-MB-231 breast = tested on: MDA-MB-231 breast
MDA-MB-435 = tested on: MDA-MB-435
KM12 colon = tested on: KM12 colon
HT29 colon = tested on: HT29 colon
TK-10 renal = tested on: TK-10 renal
SW-620 colon = tested on: SW-620 colon
NCI/ADR-RES ovarian = tested on: NCI/ADR-RES ovarian
COLO 205 colon = tested on: COLO 205 colon
OVCAR-4 ovarian = tested on: OVCAR-4 ovarian
A498 renal = tested on: A498 renal
SK-MEL-5 melanoma = tested on: SK-MEL-5 melanoma
OVCAR-3 ovarian = tested on: OVCAR-3 ovarian
HCT-116 colon = tested on: HCT-116 colon
PC-3 prostate = tested on: PC-3 prostate
SNB-75 CNS = tested on: SNB-75 CNS
K-562 leukemia = tested on: K-562 leukemia
HCT-15 colon = tested on: HCT-15 colon
SK-MEL-28 melanoma = tested on: SK-MEL-28 melanoma
UACC-257 melanoma = tested on: UACC-257 melanoma

## COc1c(O)c2c(=O)cc(OC)c3c4c(OC)cc(=O)c5c(O)c(OC)c6c(c(c1C(C(C)O)C6C(C)O)c23)c54 (stereo not drawn)
NCI-H226 lung
  TGI: 5.46 µM
NCI-H460 lung
  TGI: 1.18 µM
A549 NSCLC
  TGI: 2.66 µM
SR leukemia
  TGI: 5.37 µM
U251 CNS
  TGI: 11.3 µM
OVCAR-8 ovarian
  TGI: 2.48 µM
OVCAR-5 ovarian
  TGI: 7.62 µM
HCC-2998 colon
  TGI: 1.65 µM
786-0 renal
  TGI: 4.78 µM
SF-539 CNS
  TGI: 2.11 µM
SNB-19 CNS
  TGI: 6.22 µM
LOX IMVI melanoma
  TGI: 3.08 µM
SK-OV-3 ovarian
  TGI: 8.64 µM
MDA-N
  TGI: 3.96 µM
NCI-H23 lung
  TGI: 3.71 µM
UO-31 renal
  TGI: 2.3 µM
MALME-3M melanoma
  TGI: 2.75 µM
HOP-92 NSCLC
  TGI: 1.49 µM
T-47D breast
  TGI: 8.33 µM
EKVX NSCLC
  TGI: 3.56 µM
HL-60(TB) leukemia
  TGI: 1.67 µM
SF-268 CNS
  TGI: 15 µM
UACC-62 melanoma
  TGI: 3.54 µM
IGROV1 ovarian
  TGI: 2.3 µM
RXF 393 renal
  TGI: 1.76 µM
HS 578T breast
  TGI: 6.07 µM
MOLT-4 leukemia
  TGI: 1.25 µM
CAKI-1 renal
  TGI: 0.842 µM
RPMI-8226 leukemia
  TGI: 4.8 µM
M14 melanoma
  TGI: 2.34 µM
ACHN renal
  TGI: 2.93 µM
SF-295 CNS
  TGI: 1.97 µM
HOP-62 NSCLC
  TGI: 2.02 µM
MCF7 breast
  TGI: 4.04 µM
SK-MEL-2 melanoma
  TGI: 3.73 µM
NCI-H522 lung
  TGI: 3.82 µM
CCRF-CEM leukemia
  TGI: 3.23 µM
DU-145 prostate
  TGI: 8.14 µM
SN12C renal
  TGI: 3.17 µM
MDA-MB-231 breast
  TGI: 5.48 µM
MDA-MB-435
  TGI: 5.44 µM
KM12 colon
  TGI: 3.43 µM
HT29 colon
  TGI: 3.71 µM
TK-10 renal
  TGI: 4.66 µM
SW-620 colon
  TGI: 4.33 µM
NCI/ADR-RES ovarian
  TGI: 3.66 µM
COLO 205 colon
  TGI: 4.22 µM
OVCAR-4 ovarian
  TGI: 4.96 µM
A498 renal
  TGI: 3.45 µM
SK-MEL-5 melanoma
  TGI: 1.15 µM
OVCAR-3 ovarian
  TGI: 2.66 µM
HCT-116 colon
  TGI: 6.18 µM
PC-3 prostate
  TGI: 1.85 µM
SNB-75 CNS
  TGI: 2.89 µM
K-562 leukemia
  TGI: 1.66 µM

## Oc1[nH]c2ccccc2c1N=NC(=S)Nc1ccc(Cl)cc1
NCI-H226 lung
  TGI: 86.4 µM
HCT-15 colon
  TGI: > 100 µM
NCI-H460 lung
  TGI: > 100 µM
A549 NSCLC
  TGI: > 100 µM
SR leukemia
  TGI: > 100 µM
U251 CNS
  TGI: > 100 µM
OVCAR-8 ovarian
  TGI: 98.8 µM
OVCAR-5 ovarian
  TGI: > 100 µM
HCC-2998 colon
  TGI: > 100 µM
SK-MEL-28 melanoma
  TGI: > 100 µM
786-0 renal
  TGI: > 100 µM
SF-539 CNS
  TGI: 82.3 µM
SNB-19 CNS
  TGI: > 100 µM
LOX IMVI melanoma
  TGI: > 100 µM
SK-OV-3 ovarian
  TGI: > 100 µM
MDA-N
  TGI: > 100 µM
NCI-H23 lung
  TGI: > 100 µM
UO-31 renal
  TGI: > 100 µM
MALME-3M melanoma
  TGI: 54.7 µM
HOP-92 NSCLC
  TGI: > 100 µM
T-47D breast
  TGI: > 100 µM
EKVX NSCLC
  TGI: > 100 µM
HL-60(TB) leukemia
  TGI: > 100 µM
SF-268 CNS
  TGI: > 100 µM
UACC-62 melanoma
  TGI: > 100 µM
IGROV1 ovarian
  TGI: > 100 µM
UACC-257 melanoma
  TGI: > 100 µM
RXF 393 renal
  TGI: > 100 µM
HS 578T breast
  TGI: > 100 µM
MOLT-4 leukemia
  TGI: > 100 µM
CAKI-1 renal
  TGI: 64 µM
RPMI-8226 leukemia
  TGI: > 100 µM
M14 melanoma
  TGI: 45.2 µM
ACHN renal
  TGI: > 100 µM
SF-295 CNS
  TGI: > 100 µM
HOP-62 NSCLC
  TGI: > 100 µM
MCF7 breast
  TGI: > 100 µM
SK-MEL-2 melanoma
  TGI: > 100 µM
NCI-H522 lung
  TGI: > 100 µM
CCRF-CEM leukemia
  TGI: > 100 µM
DU-145 prostate
  TGI: > 100 µM
SN12C renal
  TGI: > 100 µM
MDA-MB-231 breast
  TGI: 99.6 µM
MDA-MB-435
  TGI: > 100 µM
KM12 colon
  TGI: > 100 µM
HT29 colon
  TGI: > 100 µM
TK-10 renal
  TGI: 94.1 µM
SW-620 colon
  TGI: > 100 µM
NCI/ADR-RES ovarian
  TGI: 38.8 µM
COLO 205 colon
  TGI: > 100 µM
OVCAR-4 ovarian
  TGI: > 100 µM
A498 renal
  TGI: 63 µM
SK-MEL-5 melanoma
  TGI: 63.4 µM
OVCAR-3 ovarian
  TGI: > 100 µM
HCT-116 colon
  TGI: > 100 µM
PC-3 prostate
  TGI: > 100 µM
SNB-75 CNS
  TGI: > 100 µM
K-562 leukemia
  TGI: > 100 µM
